Experimental data from publication PMC11476959, “Structural Insights and Catalytic Mechanism of 3-Hydroxybutyryl-CoA Dehydrogenase from Faecalibacterium Prausnitzii A2-165” (International Journal of Molecular Sciences, 2024).

Key:
[1] = target: T1, 3-hydroxybutyryl-CoA dehydrogenase of A2-165 (A2HBD; A2-165 BHBD) (Faecalibacterium duncaniae, UniProt C7H5K9); assay: microscale thermophoresis; type: binding
T1 construct: gene FAEPRAA2165_01580; full-length (Met1-Leu290 printed, 867 bp gene), C-terminal 6xHis kept, pET21a, E. coli BL21(DE3); hexamer in solution; N-terminus MKIGVI and C-terminus TPVDQ-LE(H6) from the printed primers; Leu290 probably comes from the XhoI site
T1 sequence (C7H5K9 entry or part of it): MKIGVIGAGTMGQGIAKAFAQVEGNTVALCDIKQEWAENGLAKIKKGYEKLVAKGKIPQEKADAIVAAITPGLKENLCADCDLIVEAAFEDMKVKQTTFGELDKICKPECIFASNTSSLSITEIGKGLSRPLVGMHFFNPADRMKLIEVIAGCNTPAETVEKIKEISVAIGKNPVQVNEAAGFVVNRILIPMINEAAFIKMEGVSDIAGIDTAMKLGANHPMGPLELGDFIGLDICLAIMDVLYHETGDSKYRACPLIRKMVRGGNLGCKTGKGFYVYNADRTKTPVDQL

[2] = target: 3-hydroxybutyryl-CoA dehydrogenase of Faecalibacterium prausnitzii A2-165 (Faecalibacterium prausnitzii A2-165); assay: SEC-MALS; 2.018 mg/mL A2HBD on Superdex 200 Increase, 20 mM Tris-HCl pH 8.0, 150 mM NaCl, 0.3 mL/min; main peak 92% of the scattered mass

Compound | Kd [1] [µM] | stoichiometry N [2]
NC(=O)c1ccc[n+]([C@@H]2O[C@H](COP(=O)(O)OP(=O)(O)OC[C@H]3O[C@@H](n4cnc5c(N)ncnc54)[C@H](O)[C@@H]3O)[C@@H](O)[C@H]2O)c1 [NAD^+] | 347 | 
3-hydroxybutyryl-CoA dehydrogenase of Faecalibacterium prausnitzii A2-165 (enzyme) |  | 6
CC(=O)CC(=O)SCCNC(=O)CCNC(=O)[C@H](O)C(C)(C)COP(=O)(O)OP(=O)(O)OC[C@H]1O[C@@H](n2cnc3c(N)ncnc32)[C@H](O)[C@@H]1OP(=O)(O)O [acetoacetyl-CoA] | 23.9 | 
